Test results: patent US20140045883A1, “ACK1 KINASE INHIBITION TO TREAT TRIPLE NEGATIVE BREAST CANCER” (H. Lee Moffitt Cancer Center and Research Institute, Inc., priority 2012, published 2014)
Like-named read-outs stand apart in the source and are kept apart here.

How the values were obtained:
Ack1 [1] = biological target: Ack1 (Homo sapiens, UniProt Q07912); assay type: cell-based; settings: MCF-7 and A2780-CP cells, AIM-100 overnight (3 μM), insulin or EGF stimulated
Experimental: (§1) FIGS. 3A-3B are images of immunoblots of lysates from serum starved MCF-7 and A2780-CP cells treated (or untreated) with insulin or EGF (10 ng/ml) and AIM-100 (3 μM, overnight) that were immunoblotted with pTyr176-AKT (top panel), pSer473-AKT (2nd panel), pThr308-AKT (3rd panel), pTyr284-Ack1 (4th panel) and tubulin (bottom panel).
(§2) To assess the potential inhibition of Ack1 activity, MCF-7 (breast) and A2780-CP (Ovary) cells were treated with AIM-100 overnight. Cells were either untreated or treated with Insulin (for 30 mins) or EGF (15 min) followed by immunoblotting of lysates with pTyr284-Ack1 antibody.

purified Ack1 kinase = purified Ack1 kinase (Homo sapiens, UniProt Q07912); settings: inhibitor 50 nM, Ack1 50 nM, 5 uM ATP, 1 hour
Chain of purified Ack1 kinase (Q07912 whole entry): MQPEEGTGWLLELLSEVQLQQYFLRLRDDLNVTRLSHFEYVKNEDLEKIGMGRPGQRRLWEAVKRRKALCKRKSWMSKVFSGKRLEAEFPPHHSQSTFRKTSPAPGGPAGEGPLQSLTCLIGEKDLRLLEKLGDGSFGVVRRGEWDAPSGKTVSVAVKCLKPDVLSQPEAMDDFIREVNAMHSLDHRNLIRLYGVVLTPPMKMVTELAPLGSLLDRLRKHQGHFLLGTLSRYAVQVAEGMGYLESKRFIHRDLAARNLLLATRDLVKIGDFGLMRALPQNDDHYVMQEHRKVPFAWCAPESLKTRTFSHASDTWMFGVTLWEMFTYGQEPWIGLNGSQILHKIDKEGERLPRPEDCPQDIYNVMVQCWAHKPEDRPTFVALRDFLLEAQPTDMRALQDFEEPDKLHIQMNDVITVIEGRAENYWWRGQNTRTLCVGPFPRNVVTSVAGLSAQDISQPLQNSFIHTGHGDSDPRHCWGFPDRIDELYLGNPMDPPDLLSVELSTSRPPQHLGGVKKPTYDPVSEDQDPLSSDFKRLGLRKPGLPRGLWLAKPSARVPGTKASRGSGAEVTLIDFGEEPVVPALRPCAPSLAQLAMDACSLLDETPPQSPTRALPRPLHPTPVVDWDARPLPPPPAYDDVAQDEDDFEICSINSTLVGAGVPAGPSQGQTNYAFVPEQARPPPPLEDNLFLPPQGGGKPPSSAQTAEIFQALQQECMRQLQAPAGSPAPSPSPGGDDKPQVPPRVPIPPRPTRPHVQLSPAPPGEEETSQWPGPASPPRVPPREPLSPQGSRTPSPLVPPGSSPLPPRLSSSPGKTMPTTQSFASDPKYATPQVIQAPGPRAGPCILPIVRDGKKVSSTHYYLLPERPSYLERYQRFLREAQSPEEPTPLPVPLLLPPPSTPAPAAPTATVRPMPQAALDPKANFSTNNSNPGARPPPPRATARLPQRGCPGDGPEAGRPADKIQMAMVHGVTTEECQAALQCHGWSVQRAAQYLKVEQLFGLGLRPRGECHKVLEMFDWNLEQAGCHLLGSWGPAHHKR
Experimental: The peptides sequence is derived from the region that is recognized by Ack1 leading to AKT Tyr176-phosphorylation and activation (13, 15, 17). The phospho-AKT peptide was used as a positive control and as a standard for quantitation of pT176-AKT in tissue samples.
The AKT peptides were diluted to final concentration of 1 uM in phosphate buffered saline (PBS) and immobilized onto streptavidin plates (R & D systems) for 1 hour. […] After 1 hour of incubation, plates were washed in PBST and secondary antibody (HRP-conjugated anti-rabbit antibody diluted in BSA) was added. After 1 hour, plates were washed in PBST and devoped using OPD substrate (Sigma) and read at 450 nm.

AKT = assay: Immunoblot of AKT phosphorylation in insulin/EGF-treated MCF-7 and A2780-CP cells; assay type: cell-based; settings: AIM-100 overnight (3 μM), insulin or EGF stimulated
Experimental: as §1, §2

MDA-MB-468 cell line = assay: Cell growth assay (WST1); assay type: cell-based; settings: MDA-MB-468, 72 hours
Experimental: (§3) Experiment was performed twice with 8 replicates, a representative data set is shown.
(§4) To determine whether inhibition of the Ack1/AKT signaling pathway affects TNBC-derived cancer cell proliferation, MDA-MB-231 and MDA-MB-468 cell lines were treated with increasing concentrations of PLX-4032 or AIM-100. A cell growth assay was performed by adding solution of WST1 to 96 wells (5×10^3 cells) and incubation for 1 h. The cell viability as a function of mitochondrial activity in living cells was measured spectrophotometrically at a wavelength of 450 nm.

MDA-MB-231 cell line = assay: Cell growth assay (WST1); assay type: cell-based; settings: MDA-MB-231, 72 hours, read-out: IG50 (cell growth)
Experimental: as §3, §4

Ack1 [2] = assay: Ack1 autoactivation in transfected HEK293 cells (HA immunoprecipitation, pTyr immunoblot); settings: HEK293 cells transfected with HA-tagged Ack1 WT/point mutants, 5 uM overnight
Experimental: Immunoprecipitation with HA-beads followed by immunoblotting with pTyr (top and middle panel) or Ack1 (bottom panel) antibodies was performed.
Site directed mutagenesis was performed and HA-tagged point mutants were generated. HEK293 cells were transfected, grown in growth factor free media, followed by immunoprecipitation with HA-beads.

xenograft tumor = assay: Xenograft tumor growth; settings: in vivo
pTyr176-AKT = assay: Affinity Purification coupled ELISA for pTyr176-AKT in MDA-MB-231; assay type: cell-based; settings: MDA-MB-231 cells treated with inhibitor
Experimental: FIG. 6 is a bar graph showing Affinity Purification coupled ELISA for pTyr176-AKT detection in TNBC derived cell line MDA-MB-231. MDA-MB-231 cell lysates were incubated with streptavidin beads with AKT peptide. The AKT peptides were eluted and phosphorylation was detected using ELISA.
Towards detecting pY176-AKT in TNBC derived cell lines, MDA-MB-231 (1×10^4 cells) were lysed in reaction buffer containing phosphatase and protease inhibitors and lysates were quantitated. Biotinylated AKT peptide was incubated with streptavidin beads for 1 hours, beads were washed and the AKT peptide coated beads were incubated with cell lysates for 1 hours at room temperature. The beads were washed in PBST and the bound peptides were eluted. To elute the bound biotinylated AKT peptide from Streptavidin Beads, Streptavidin Beads were resuspended in 10 mM NaCl containing solution followed by heating the mix at 75° C. for 2-3 minutes, as described in literature (33). The eluted AKT peptides were immobilized onto streptaviding plates and presence of phospho-peptides was detected by ELISA described above in step I.

Chain of Ack1 (Homo sapiens, UniProt Q07912) (Q07912 whole entry): as above

Row | SMILES | endogenous pTyr284-Ack1 levels (Ack1 [1]) | AKT Tyr176-phosphorylation (ELISA) (purified Ack1 kinase) | AKT Tyr176/Ser473 and Thr308-phosphorylations (AKT) | cellular cytotoxicity (in words) (MDA-MB-468 cell line) | IC50 (MDA-MB-231 cell line) | Ack1 activation (pTyr immunoblot) (Ack1 [2]) | xenograft tumor growth (xenograft tumor) | pTyr176-AKT levels (Affinity Purification Coupled ELISA) (pTyr176-AKT) | IC50 (MDA-MB-468 cell line; Homo sapiens, read-out: IG50 (cell growth)) | IC50 (MDA-MB-231 cell line; Homo sapiens)
1 | c1ccc(-c2oc3ncnc(NC[C@@H]4CCCO4)c3c2-c2ccccc2)cc1 [AIM-100] | significantly decreased | significant decrease | significant decrease | rather resistant | ~16 µM | completely abrogated Ack1 activation | suppresses | significant decrease | – | –
2 | CCCS(=O)(=O)Nc1ccc(F)c(C(=O)c2c[nH]c3ncc(-c4ccc(Cl)cc4)cc23)c1F [PLX4032, Vemurafenib] | – | – | – | – | – | completely abrogated Ack1 activation | – | significant decrease | ~13 µM | ~13 µM
